Data published in PMC11355195 (Life, 2024).
Values after ≈ are worked out from the molar mass of the structure shown.

How the values were obtained:
MDA-MB-436 = assay: MTT cell viability, MDA-MB-436; assay type: cell-based, Human
Method: (§1) These cell lines were selected to represent distinct sub-types of breast cancer for extensive investigation. […] The medium was added with 10% heat-inactivated fetal calf serum (FCS) to supply vital growth hormones and nutrients necessary for cell proliferation. Additionally, 1% penicillin streptomycin was administered to avoid bacterial contamination, ensuring the sterility and integrity of the cell cultures. The cell cultures were maintained at 37 °C in a humidified environment containing 5% CO2. This controlled environment mimics physiological conditions in the human body, supporting optimal cell development and function. The humidified atmosphere prevents medium evaporation, while the 5% CO2 concentration maintains optimal pH values in the culture medium. These specialized circumstances and methods ensure that the breast cancer cell lines remain healthy and viable for experimental procedures, delivering dependable and reproducible results for research projects. The standard protocols followed for cultivating these cells are crucial for generating consistent and reliable data. Using well-characterized cell lines from a credible source like ATCC ensures the re-liability and comparability of the experimental outcomes.
(§2) This approach determines cell viability based on the ability of living cells to decrease MTT to a purple, water-insoluble formazan product. Cells were planted in 96-well plates at a density of 1 × 10^4 cells per well in 100 μL of complete culture media, which provides all necessary nutrients for cell growth. […] The cells were then treated with the compounds for 24, 48, and 72 h to determine the effect on cell viability over varied time intervals. Following each incubation time, 20 μL of MTT solution (at a concentration of 5 mg/mL in PBS) were applied to each well. The plates were further incubated for 4 h at 37 °C, during which time live cells decrease the MTT to formazan, creating purple crystals. At the end of the incubation, the medium containing the MTT was carefully aspirated, leaving only the formazan crystals in the bottom of the wells. […]

MCF-7 = assay: MTT cell viability, MCF-7; assay type: cell-based, Human
Method: as §1, §2

[1] = tested on: peripheral blood mononuclear cells (PBMC); assay: MTT cell viability, PBMC (normal cell control); assay type: cell-based; details: MTT test, 72 h of treatment (Figure 3)
Method: This approach determines cell viability based on the ability of living cells to decrease MTT to a purple, water-insoluble formazan product. Cells were planted in 96-well plates at a density of 1 × 10^4 cells per well in 100 μL of complete culture media, which provides all necessary nutrients for cell growth. […] The cells were then treated with the compounds for 24, 48, and 72 h to determine the effect on cell viability over varied time intervals. Following each incubation time, 20 μL of MTT solution (at a concentration of 5 mg/mL in PBS) were applied to each well. The plates were further incubated for 4 h at 37 °C, during which time live cells decrease the MTT to formazan, creating purple crystals. At the end of the incubation, the medium containing the MTT was carefully aspirated, leaving only the formazan crystals in the bottom of the wells. To dissolve these crystals, 100 μL of DMSO were administered to each well. […] This formula quantifies the reduction in cell viability in response to the treatments compared to the control. […] Cisplatin, a known anticancer drug, was used as a reference drug at varying concentrations from 0.01 to 50 µg/mL.

MDA-MB-231 = assay: MTT cell viability, MDA-MB-231; assay type: cell-based, Human
Method: as §1, §2

DPPH scavenging capacity = details: 0.1 mM DPPH
Method: The method utilized to test the compound’s efficacy in scavenging DPPH radicals was based on protocols detailed in references, with minor changes. The test was completed in duplicate for each concentration. A solution of 0.1 mM DPPH (2,2-diphenyl-1-picrylhydrazyl) was produced, and the compounds were evaluated at different concentrations ranging from 1 to 500 µg/mL. Ascorbic acid served as the positive control with concentrations ranging from 0.01 to 300 µg/mL [35].

ABTS scavenging activity = assay: ABTS scavenging activity
Description: With a few minor adjustments, the procedure published by Re et al., was used to evaluate the test samples’ capacity to scavenge radicals against the ABTS (2,2′-azinobis-3-ethylbenzothiazoline-6-sulphonate) radical cation.

[2] = Oxygen radical absorbance capacity (ORAC); details: Trolox equivalents
Method: The ORAC (Oxygen Radical Absorbance Capacity) test was carried out using a modified version of the procedure reported by Huang et al.. This test examines the antioxidant capacity of compounds by examining their ability to neutralize oxygen radicals. The method was carried out utilizing a 96-well microplate format. First, 150 µL of fluorescein solution, produced as 8 × 10^−8 M fluorescein in 0.075 M phosphate buffer (pH 7.4), were dispersed to each well. Fluorescein is a fluorescent probe whose fluorescence lowers when it reacts with radicals. Next, 25 µL of the substance or mixture to be evaluated was added to the corresponding wells. Wells containing 25 µL of phosphate buffer served as blanks, and wells containing 25 µL of Trolox solution (from 10 to 100 µm) were utilized as standards. Control wells containing 50 µL phosphate buffer without any radicals were also added to provide a baseline. The reaction was initiated by adding 25 µL of a freshly produced solution of AAPH (2,2′-azobis(2-methylpropionamidine) dihydrochloride) at a concentration of 165.94 mM in phosphate buffer to each well, except for the control wells, at a temperature of 37 °C. AAPH creates peroxyl radicals that induce oxidative stress in the fluorescein solution, simulating free-radical attack. […] The fluorescence in-tensity of the mixture was then monitored at regular intervals for 120 min.

COX-1 = biological target: T1, COX-1 (Ovis aries, UniProt P05979); assay: COX-1-catalyzed prostaglandin production inhibition; assay type: biochemical, ram
T1 construct: The COX-1 enzyme was produced from ram seminal vesicles; purchased Cayman Chemical Company, Ann Arbor, MI, USA; host or cells: ram seminal vesicles (tissue)
T1 sequence (P05979 25-600): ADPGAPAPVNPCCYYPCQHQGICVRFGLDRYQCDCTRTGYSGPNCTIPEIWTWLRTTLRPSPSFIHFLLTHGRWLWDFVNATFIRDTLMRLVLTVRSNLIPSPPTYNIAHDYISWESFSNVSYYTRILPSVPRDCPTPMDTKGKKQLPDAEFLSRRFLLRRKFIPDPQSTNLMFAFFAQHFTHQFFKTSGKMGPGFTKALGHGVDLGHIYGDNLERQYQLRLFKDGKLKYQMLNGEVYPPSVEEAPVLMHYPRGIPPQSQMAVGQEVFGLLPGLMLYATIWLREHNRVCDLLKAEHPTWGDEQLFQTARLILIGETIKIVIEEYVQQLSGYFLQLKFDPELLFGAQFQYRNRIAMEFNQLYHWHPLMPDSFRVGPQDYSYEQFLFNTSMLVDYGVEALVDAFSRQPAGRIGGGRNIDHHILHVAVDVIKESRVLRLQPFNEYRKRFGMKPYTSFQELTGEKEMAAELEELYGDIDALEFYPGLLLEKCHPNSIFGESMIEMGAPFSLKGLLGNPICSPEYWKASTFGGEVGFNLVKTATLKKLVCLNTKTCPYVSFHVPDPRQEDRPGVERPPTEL
Method: The COX inhibitory effects of the substances were examined using a COX-1/COX-2-catalyzed prostaglandin production test, using a modified approach by Futaki et al.. The chemicals were dissolved in 4% DMSO to a final concentration of 100 µg/mL.
In this test, one unit of COX-1 or COX-2 enzyme was suspended in a 0.1 M Tris-HCl buffer (pH 7.5) containing hematin ([…]) and phenol (2 mM) as cofactors. The COX-1 enzyme was produced from ram seminal vesicles, while COX-2 was taken from sheep placenta with a purity of 70% (both from Cayman Chemical Company, Ann Arbor, MI, USA). The reaction mixture was preincubated with either the solvent vehicle (4% DMSO) or the test solution for 2 min at 37 °C. […] Arachidonic acid, tagged with radioactive carbon ([1–14C]), serves as a substrate for the COX enzymes. The mixture was then incubated for an additional 2 min at 37 °C. […] The organic solvent phase was removed, and the PGE2 level in the remaining aqueous phase was quantified using a radioimmunoassay with a liquid scintillation counter, which measures the radioactivity (disintegrations per minute, DPM) of the [1–14C]-labeled PGE2. The percentage inhibition of COX-catalyzed prostaglandin production by the test compounds was estimated by comparing the radioactivity of the samples with the solvent vehicle controls. […]

MCF-7 cells = details: at 24 and 48 h; ref Mari et al. (2021) [78]; read-out: IC50, survival of MCF-7 cells; cited from earlier work
[3] = MTT test, 72 h of treatment (Figure 3)

| SMILES | IC50 Value ± SD, MDA-MB-436 (MDA-MB-436; [3]) | IC50 Value ± SD, MCF-7 (MCF-7; [3]) | IC50 Value ± SD, PBMC [1] | IC50 Value ± SD, MDA-MB-231 (MDA-MB-231; [3]) | DPPH Scavenging Capacity IC50 (DPPH scavenging capacity) | ABTS Scavenging Activity IC50 (ABTS scavenging activity) | IC50 (MDA-MB-436; Homo sapiens, MDA-MB-436, 72 h, read-out: IC50 Value ± SD, MDA-MB-436) | Oxygen Radical Absorbance Capacity [2] | IC50 (MCF-7; Homo sapiens, MCF7, 72 h, read-out: IC50 Value ± SD, MCF-7) | IC50 (COX-1) | IC50 (MDA-MB-231; Homo sapiens, MDA-MB-231, 72 h, read-out: IC50 Value ± SD, MDA-MB-231) | IC50 (MCF-7 cells) |
| --- | --- | --- | --- | --- | --- | --- | --- | --- | --- | --- | --- | --- |
| N.N.[Cl][Pt][Cl] [Cisplatin, reference compound] | 3.96 ± 0.59 µg/mL | 8.43 ± 0.92 µg/mL | 25.36 ± 1.40 µg/mL | 4.60 ± 0.66 µg/mL |  |  |  |  |  |  |  |  |
| O=C1O[C@H]([C@@H](O)CO)C(O)=C1O [Ascorbic acid (AA), Ascorbic acid, reference compound] |  |  |  |  | 188.24 ± 6.46 µg/mL | 25.20 ± 3.06 µg/mL |  |  |  |  |  |  |
| Cc1ccc(C(C)C)cc1O [Carvacrol, 2-methyl-5-(1-methylethyl)phenol] |  |  |  |  |  | 107.88 ± 4.46 µg/mL | 9.5 ± 1.15 µg/mL (≈ 63.2 µM) | 3.535 ± 0.127 mmol TE/g | 5.93 ± 0.77 µg/mL (≈ 39.5 µM) | 470 µM | 9.76 ± 0.23 µg/mL (≈ 65 µM) | 200 µM |
